These results are taken from ChEMBL document CHEMBL5608163, “Structure modification of anoplin for fighting resistant bacteria” (Eur J Med Chem, 2024).

By MIC is commonly meant the least concentration at which growth counts as inhibited. As usually defined, the HC50 is the concentration giving 50% haemolysis.

In brackets after ≈: the same amount, converted by molar mass. Square brackets hold non-standard residues; d marks the D form. Peptide text beside a SMILES is read from it. * marks the point of attachment. 2Nal = N[C@@H](Cc1ccc2ccccc2c1)C(=O)O; NMeI = CC[C@H](C)[C@H](NC)C(=O)O; Tridecanoyl = CCCCCCCCCCCCC(=O)*; hIle = CC[C@H](C)C[C@H](N)C(=O)O; Cha = N[C@@H](CC1CCCCC1)C(=O)O; NMeL = CN[C@@H](CC(C)C)C(=O)O

Data set [1] relates to Staphylococcus aureus. Put plainly: Antibacterial activity against Staphylococcus aureus ATCC 25923 assessed as reduction in bacterial growth incubated for 18 to 24 hrs by broth microdilution method. In kind it is functional. The note with it: time 18-24 hrs.
For data set [2], the system named is Escherichia coli. Put plainly: Antibacterial activity against Escherichia coli ATCC 25922 assessed as reduction in bacterial growth by broth microdilution method. In kind it is functional.
Data set [3] concerns Escherichia coli. Put plainly: Antibacterial activity against Escherichia coli ATCC 25922 assessed as reduction in bacterial cell growth measured for 18 hrs by Mueller-Hinton broth based two-fold serial dilution method. In kind it is functional.
The test system of data set [4] is Staphylococcus aureus. Put plainly: Antibacterial activity against Staphylococcus aureus ATCC 25923 assessed as reduction in bacterial cell growth measured for 18 hrs by Mueller-Hinton broth based two-fold serial dilution method. In kind it is functional.
In the next data set the test system is Klebsiella pneumoniae. Put plainly: Antibacterial activity against Klebsiella pneumoniae ATCC 700603 assessed as reduction in bacterial cell growth measured for 18 hrs by Mueller-Hinton broth based two-fold serial dilution method. It counts as functional.
Data set [5] in a line: (§1) Hemolytic activity in mouse Red blood cells incubated for 1 hr by microplate reader assay. It counts as toxicity, cell-based, Erythrocyte. To be noted: red blood cells.
Data set [6] concerns Pseudomonas aeruginosa. The data set can be described thus: Antibacterial activity against Pseudomonas aeruginosa ATCC 27853 assessed as reduction in bacterial cell growth measured for 18 hrs by Mueller-Hinton broth based two-fold serial dilution method. In kind it is functional.
A further data set concerns Bacillus subtilis. The data set can be described thus: Antibacterial activity against Bacillus subtilis ATCC 23857 assessed as reduction in bacterial cell growth measured for 18 hrs by Mueller-Hinton broth based two-fold serial dilution method. In kind it is functional.
Data set [7] relates to Escherichia coli. Put plainly: Antibacterial activity against Escherichia coli ATCC 25922 assessed as reduction in microbial growth incubated for 16 to 20 hrs by CLSI protocol based Muller Hinton broth assay. The note with it: time 16-20 hrs. It counts as functional.
A short description of data set [8]: Hemolytic activity in human RBC assessed as hemolysis measured after 24 hrs. In kind it is toxicity, cell-based, Erythrocyte. The note with it: red blood cells.
In data set [9] the test system is Pseudomonas aeruginosa. The data set can be described thus: Antibacterial activity against Pseudomonas aeruginosa ATCC 27853 assessed as reduction in microbial growth incubated for 16 to 20 hrs by CLSI protocol based Muller Hinton broth assay. It counts as functional. To be noted: time 16-20 hrs.
Data set [10] has as its system Staphylococcus aureus. The data set can be described thus: Antibacterial activity against methicillin-resistant Staphylococcus aureus ATCC 33591 assessed as reduction in bacterial growth incubated for 18 hrs by agar dilution method. It counts as functional.
For the next data set, the system named is Enterococcus faecium. The data set can be described thus: Antibacterial activity against vancomycin resistant Enterococcus faecium ATCC 700221 assessed as inhibition of bacterial growth incubated for 48 hrs by CLSI-based broth microdilution assay. It counts as functional. On the technique in general: Broth dilution looks for growth in wells or tubes with falling amounts of substance.

A further data set deals with Erythrocyte. Described as §1. In kind it is toxicity, cell-based. The note with it: erythrocyte, 1 h.

As for `CC[C@H](C)[C@H](NC(=O)[C@H](CCCNC(=N)N)NC(=O)[C@H](CCCCN)NC(=O)[C@H](CC(C)C)NC(=O)[C@H](CC(C)C)NC(=O)[C@H](C)N)C(=O)N[C@@H](CCCCN)C(=O)N[C@H](C(=O)N[C@@H](CC(C)C)C(=O)N[C@@H](CC(C)C)C(N)=O)[C@@H](C)O` (H-ALLKRIKTLL-NH2), the MIC with Staphylococcus aureus [1] and in the data set on Escherichia coli [2] was more than 18 µM each time.

Turning to `CC[C@H](C)[C@H](NC(=O)[C@H](CCCNC(=N)N)NC(=O)[C@H](C)NC(=O)[C@H](CC(C)C)NC(=O)[C@H](CC(C)C)NC(=O)CN)C(=O)N[C@@H](CCCCN)C(=O)N[C@H](C(=O)N[C@@H](CC(C)C)C(=O)N[C@@H](CC(C)C)C(N)=O)[C@@H](C)O` (H-GLLARIKTLL-NH2), the MIC in the data set on Staphylococcus aureus [1] came out at 25.6 µM (≈ 28.1 µg/mL); in the data set on Escherichia coli [2] it was 14.6 µM (≈ 16 µg/mL).

As for `CC[C@H](C)[C@H](NC(=O)[C@H](CCCNC(=N)N)NC(=O)[C@H](CCCCN)NC(=O)[C@H](C)NC(=O)[C@H](CC(C)C)NC(=O)CN)C(=O)N[C@@H](CCCCN)C(=O)N[C@H](C(=O)N[C@@H](CC(C)C)C(=O)N[C@@H](CC(C)C)C(N)=O)[C@@H](C)O` (H-GLAKRIKTLL-NH2), the MIC in the data set on Staphylococcus aureus [1] and in the data set with Escherichia coli [2] was more than 34.2 µM each time.

For `CCCCCCCCCCCCC(=O)NCC(=O)N[C@@H](CC(C)C)C(=O)N(C)[C@@H](CC(C)C)C(=O)N[C@@H](CCCCN)C(=O)N[C@@H](CCCNC(=N)N)C(=O)N(C)[C@H](C(=O)N[C@@H](CCCCN)C(=O)N[C@H](C(=O)N[C@@H](CC(C)C)C(=O)N[C@@H](CC(C)C)C(N)=O)[C@@H](C)O)[C@@H](C)CC` (Tridecanoyl-GL[NMeL]KR[NMeI]KTLL-NH2), the MIC worked out at 8 µM (≈ 11 µg/mL) in the data set on Escherichia coli [3]; 4 µM (≈ 5.51 µg/mL) in the data set on Staphylococcus aureus [4]; 32 µM (≈ 44.1 µg/mL) in the data set on Klebsiella pneumoniae; 8 µM (≈ 11 µg/mL) in the data set with Pseudomonas aeruginosa [6]; 4 µM (≈ 5.51 µg/mL) with Bacillus subtilis. The concentration for 50% haemolysis (HC50) at 1 h in data set [5] is 64 µM.

Take `CC[C@H](C)[C@H](NC(=O)[C@H](Cc1c[nH]c2ccccc12)NC(=O)[C@H](CCCCN)NC(=O)[C@H](CC(C)C)NC(=O)[C@H](CC(C)C)NC(=O)CN)C(=O)N[C@@H](CCCCN)C(=O)N[C@@H](CCCCN)C(=O)N[C@@H](CC(C)C)C(=O)N[C@@H](CC(C)C)C(N)=O` (H-GLLKWIKKLL-NH2): the MIC with Escherichia coli [7] amounted to 3.2 µM; in the data set with Pseudomonas aeruginosa [9], 9.5 µM; in the data set with Staphylococcus aureus [10], 2.5 µM (≈ 3.03 µg/mL); in the data set on Enterococcus faecium it was 3.2 µM (≈ 3.87 µg/mL). Further, the HC50 at 24 h in data set [8] was 11.6 µM.

Molecule `CC[C@H](C)[C@H](NC(=O)[C@H](CCCNC(=N)N)NC(=O)[C@@H](CCCCN)NC(=O)[C@H](CC(C)C)NC(=O)[C@H](CC(C)C)NC(=O)CN)C(=O)N[C@@H](CCCCN)C(=O)N[C@@H](C(=O)N[C@@H](CC(C)C)C(=O)N[C@@H](CC(C)C)C(N)=O)[C@H](C)O` showed an HC10 in the data set on Erythrocyte of more than 300 µM.

Consider `CC[C@H](C)[C@H](NC(=O)[C@H](CCCNC(=N)N)NC(=O)[C@H](CCCCN)NC(=O)[C@H](CC(C)C)NC(=O)[C@H](CC(C)C)NC(=O)CN)C(=O)N[C@@H](CCCCN)C(=O)N[C@H](C(=O)N[C@@H](C)C(=O)N[C@@H](CC(C)C)C(N)=O)[C@@H](C)O` (H-GLLKRIKTAL-NH2), for which the MIC came to 27.9 µM (≈ 31 µg/mL) in the data set with Staphylococcus aureus [1] and 44.1 µM (≈ 49 µg/mL) with Escherichia coli [2].

For `CC(C)C[C@H](NC(=O)[C@H](CC(C)C)NC(=O)[C@@H](NC(=O)[C@H](CCCCN)NC(=O)[C@H](Cc1ccc2ccccc2c1)NC(=O)[C@H](CCCNC(=N)N)NC(=O)[C@H](CCCCN)NC(=O)[C@H](CC(C)C)NC(=O)[C@H](CC(C)C)NC(=O)CN)[C@@H](C)O)C(N)=O` (H-GLLKR[2Nal]KTLL-NH2), the MIC in the data set with Escherichia coli [7] is 28.4 µM; in the data set on Pseudomonas aeruginosa [9], 28.4 µM; with Staphylococcus aureus [10], 85.3 µM (≈ 106 µg/mL); with Enterococcus faecium, 28.4 µM (≈ 35.1 µg/mL). The HC50 at 24 h in data set [8] was more than 500 µM.

As for `CC[C@H](C)C[C@H](NC(=O)[C@H](CCCNC(=N)N)NC(=O)[C@H](CCCCN)NC(=O)[C@H](CC(C)C)NC(=O)[C@H](CC(C)C)NC(=O)CN)C(=O)N[C@@H](CCCCN)C(=O)N[C@H](C(=O)N[C@@H](CC(C)C)C(=O)N[C@@H](CC1CCCCC1)C(N)=O)[C@@H](C)O` (H-GLLKR[hIle]KTL[Cha]-NH2), the MIC in the data set with Escherichia coli [7] was 12.5 µM; in the data set on Pseudomonas aeruginosa [9], 28.4 µM; with Staphylococcus aureus [10], 28.4 µM (≈ 34.3 µg/mL); in the data set with Enterococcus faecium, 26.3 µM (≈ 31.8 µg/mL). In addition, the HC50 at 24 h in [8] stood at 317 µM.
